In ChEMBL document CHEMBL4177592, “Discovery of renin inhibitors containing a simple aspartate binding moiety that imparts reduced P450 inhibition” (Bioorg Med Chem Lett, 2017):

Tests used:
[1] = biological target: T1, Renin (Homo sapiens, UniProt P00797); test: Inhibition of trypsin-activated recombinant human Fc-tagged renin expressed in BacMam virus infected HEK-F cells using Arg-Glu-Lys(5-Fam)-Ile-His-Pro-Phe-His-Leu-Val-IleHis-Thr-Lys(5,6 Tamra)-Arg-CONH2 as substrate measured after 2 hrs
T1 sequence (P00797 whole entry): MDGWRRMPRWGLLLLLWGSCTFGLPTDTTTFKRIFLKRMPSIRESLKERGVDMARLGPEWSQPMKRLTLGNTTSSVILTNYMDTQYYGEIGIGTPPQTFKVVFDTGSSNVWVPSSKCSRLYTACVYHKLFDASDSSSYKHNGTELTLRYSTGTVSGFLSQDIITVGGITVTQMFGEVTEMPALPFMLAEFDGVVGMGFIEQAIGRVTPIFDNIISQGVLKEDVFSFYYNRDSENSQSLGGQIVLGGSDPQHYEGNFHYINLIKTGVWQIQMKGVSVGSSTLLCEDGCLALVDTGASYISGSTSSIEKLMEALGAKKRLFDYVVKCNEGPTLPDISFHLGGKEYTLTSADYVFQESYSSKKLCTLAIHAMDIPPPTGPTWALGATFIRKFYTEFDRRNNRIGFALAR

[2] = biological target: T1, Renin; test: Inhibition of renin in human plasma using angiotensinogen as substrate measured for 90 mins by [125I]-angiotensin based radioimmunoassay
[3] = biological target: Cytochrome P450 3A4 (Homo sapiens, UniProt P08684); test: Inhibition of human CYP3A4 expressed in Escherichia coli co-expressing CYP-reductase using diethoxyfluorescein as substrate measured after 10 mins by fluorescence assay
Cytochrome P450 3A4, sequence (P08684 whole entry): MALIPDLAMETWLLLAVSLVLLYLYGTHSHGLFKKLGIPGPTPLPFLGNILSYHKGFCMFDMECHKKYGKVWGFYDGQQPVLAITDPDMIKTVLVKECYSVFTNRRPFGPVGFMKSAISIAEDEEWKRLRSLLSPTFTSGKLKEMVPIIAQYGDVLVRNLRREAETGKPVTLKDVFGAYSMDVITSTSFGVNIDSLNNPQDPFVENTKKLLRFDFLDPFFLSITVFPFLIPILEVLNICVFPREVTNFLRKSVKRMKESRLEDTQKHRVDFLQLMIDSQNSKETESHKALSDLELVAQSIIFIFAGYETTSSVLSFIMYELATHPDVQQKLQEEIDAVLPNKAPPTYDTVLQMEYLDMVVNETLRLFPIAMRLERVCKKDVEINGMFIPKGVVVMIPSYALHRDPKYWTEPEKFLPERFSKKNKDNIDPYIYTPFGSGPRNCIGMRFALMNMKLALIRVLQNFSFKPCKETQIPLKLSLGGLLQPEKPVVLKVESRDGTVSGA

IC50 [1] | IC50 [2] | IC50 [3] | Structure (SMILES)
320 nM | – | – | CCc1cccc(-c2c(F)cccc2C(O)(CCCNC(=O)OC)[C@@H]2CCCN(C(=O)CC[C@H](N)C(=O)O)C2)c1 (some centres undefined)
1 nM | 13 nM | 240 nM | CCc1cccc(-c2c(F)cccc2C(O)(CCCNC(=O)OC)[C@@H]2CCCN(C(=O)CCCN)C2)c1 (some centres undefined)
2 nM | 120 nM | – | CCc1cccc(-c2c(F)cccc2C(O)(CCCNC(=O)OC)[C@@H]2CCCN(C(=O)CCCCN)C2)c1 (some centres undefined)
6.3 nM | 180 nM | – | CCc1cccc(-c2c(F)cccc2C(O)(CCCNC(=O)OC)[C@@H]2CCCN(C(=O)CC[C@@H](N)CO)C2)c1 (some centres undefined)
25 nM | 540 nM | – | CCc1cccc(-c2c(F)cccc2C(O)(CCCNC(=O)OC)[C@@H]2CCCN(C(=O)C3CCNC3)C2)c1 (some centres undefined)
63 nM | 3800 nM | – | CCc1cccc(-c2c(F)cccc2C(O)(CCCNC(=O)OC)[C@@H]2CCCN(C(=O)CN)C2)c1 (some centres undefined)
0.6 nM | 4.3 nM | 49 nM | CCc1cccc(-c2c(Cl)cccc2C(O)(CCCNC(=O)OC)[C@@H]2CCCN(C(=O)[C@@H]3CC[C@H](NC)C3)C2)c1 (some centres undefined)
0.6 nM | 3.3 nM | 90 nM | CCc1cccc(-c2c(F)cccc2C(O)(CCCNC(=O)OC)[C@@H]2CCCN(C(=O)[C@@H]3CC[C@H](N)C3)C2)c1 (some centres undefined)
2 nM | 36 nM | 440 nM | CCc1cccc(-c2c(F)cccc2C(O)(CCCNC(=O)OC)[C@@H]2CCCN(C(=O)CC(O)CN)C2)c1 (some centres undefined)
630 nM | – | – | CCc1cccc(-c2c(F)cccc2C(O)(CCCNC(=O)OC)[C@@H]2CCCN(C(=O)CC[C@H](N)C(N)=O)C2)c1 (some centres undefined)
40 nM | 840 nM | – | CCc1cccc(-c2c(F)cccc2C(O)(CCCNC(=O)OC)[C@@H]2CCCN(C(=O)[C@@H](O)CCN)C2)c1 (some centres undefined)
3.2 nM | 150 nM | – | CCc1cccc(-c2c(F)cccc2C(O)(CCCNC(=O)OC)[C@@H]2CCCN(C(=O)NCCN)C2)c1 (some centres undefined)
2 nM | 40 nM | – | CCc1cccc(-c2c(F)cccc2C(O)(CCCNC(=O)OC)[C@@H]2CCCN(C(=O)CC3CCCNC3)C2)c1 (some centres undefined)
80 nM | – | – | CCc1cccc(-c2c(F)cccc2C(O)(CCCNC(=O)OC)[C@@H]2CCCN(C(=O)CCC3CCNCC3)C2)c1 (some centres undefined)
630 nM | – | – | CCc1cccc(-c2c(F)cccc2C(O)(CCCNC(=O)OC)[C@@H]2CCCN(C(=O)CCCN(C)C)C2)c1 (some centres undefined)
16 nM | 450 nM | – | CCc1cccc(-c2c(F)cccc2C(O)(CCCNC(=O)OC)[C@@H]2CCCN(C(=O)CC[C@H](N)C(=O)OCc3ccccc3)C2)c1 (some centres undefined)
2.5 nM | 63 nM | – | CCc1cccc(-c2c(F)cccc2C(O)(CCCNC(=O)OC)[C@@H]2CCCN(C(=O)CCCNCCO)C2)c1 (some centres undefined)
20 nM | 460 nM | – | CCc1cccc(-c2c(F)cccc2C(O)(CCCNC(=O)OC)[C@@H]2CCCN(C(=O)CC[C@H](N)CO)C2)c1 (some centres undefined)

IC50 [1] | IC50 [2] | IC50 [3] | Structure (SMILES)
1000 nM | – | – | CCc1cccc(-c2c(F)cccc2C(O)(CCCNC(=O)OC)[C@@H]2CCCN(C(=O)C3CNCCO3)C2)c1 (some centres undefined)
6.3 nM | 102 nM | – | CCc1cccc(-c2c(F)cccc2C(O)(CCCNC(=O)OC)[C@@H]2CCCN(C(=O)C3CCNCC3)C2)c1 (some centres undefined)
2000 nM | – | – | CCc1cccc(-c2c(F)cccc2C(O)(CCCNC(=O)OC)[C@@H]2CCCN(C(=O)C3CCCCN3)C2)c1 (some centres undefined)
25 nM | 540 nM | – | CCc1cccc(-c2c(F)cccc2C(O)(CCCNC(=O)OC)[C@@H]2CCCN(C(=O)CC[C@H](N)C(=O)OC)C2)c1 (some centres undefined)
6.3 nM | 120 nM | – | CCc1cccc(-c2c(F)cccc2C(O)(CCCNC(=O)OC)[C@@H]2CCCN(C(=O)NCCNC)C2)c1 (some centres undefined)
0.3 nM | 1.8 nM | 250 nM | CCc1cccc(-c2c(Cl)cccc2C(O)(CCCNC(=O)OC)[C@@H]2CCCN(C(=O)[C@H]3C[C@@H](N)[C@@H](O)C3)C2)c1 (some centres undefined)
320 nM | – | – | CCc1cccc(-c2c(F)cccc2C(O)(CCCNC(=O)OC)[C@@H]2CCCN(C(=O)C3CCCNC3)C2)c1 (some centres undefined)
2 nM | 29 nM | 840 nM | CCc1cccc(-c2c(F)cccc2C(O)(CCCNC(=O)OC)[C@@H]2CCCN(C(=O)CC(O)CNC)C2)c1 (some centres undefined)
1.6 nM | 23 nM | – | CCc1cccc(-c2c(F)cccc2C(O)(CCCNC(=O)OC)[C@@H]2CCCN(C(=O)CC3CCNCC3)C2)c1 (some centres undefined)
800 nM | – | – | CCc1cccc(-c2c(F)cccc2C(O)(CCCNC(=O)OC)[C@@H]2CCCN(C(=O)CC3CCCN3)C2)c1 (some centres undefined)
126 nM | – | – | CCc1cccc(-c2c(F)cccc2C(O)(CCCNC(=O)OC)[C@@H]2CCCN(C(=O)CCC3CCCCN3)C2)c1 (some centres undefined)
1 nM | 16 nM | 140 nM | CCc1cccc(-c2c(Cl)cccc2C(O)(CCCNC(=O)OC)[C@@H]2CCCN(C(=O)CCCNC)C2)c1 (some centres undefined)
5 nM | 50 nM | – | CCc1cccc(-c2c(F)cccc2C(O)(CCCNC(=O)OC)[C@@H]2CCCN(C(=O)CC(CNC)OC)C2)c1 (some centres undefined)
100 nM | – | – | CCc1cccc(-c2c(F)cccc2C(O)(CCCNC(=O)OC)[C@@H]2CCCN(C(=O)CCN)C2)c1 (some centres undefined)
3.2 nM | 100 nM | – | CCc1cccc(-c2c(F)cccc2C(O)(CCCNC(=O)OC)[C@@H]2CCCN(C(=O)CCCCCN)C2)c1 (some centres undefined)
1.3 nM | – | – | CCc1cccc(-c2c(F)cccc2C(O)(CCCNC(=O)OC)[C@@H]2CCCN(C(=O)C[C@H](O)CN)C2)c1 (some centres undefined)
1.6 nM | 24 nM | – | CCc1cccc(-c2c(F)cccc2C(O)(CCCNC(=O)OC)[C@@H]2CCCN(C(=O)CC3CNCCO3)C2)c1 (some centres undefined)
3.1 nM | 8.4 nM | 34 nM | CCc1cccc(-c2c(Cl)cccc2C(O)(CCCNC(=O)OC)[C@@H]2CCCN(C(=O)[C@@H]3CC[C@H](N)C3)C2)c1 (some centres undefined)
